From US5190923A, “Peptide compounds containing a cyclic amide structure” (Adir Et Compagnie, priority 1990, dated 1993)

Assays:
Assay type in all cases: in vivo
[1] = tested on: xylazine-induced loss of righting reflex; test: Xylazine induced inhibition of the righting reflex in rats; conditions: IP
Protocol: The administration of a central α2 agonist, xylazine, to rats leads to loss of the animal's righting reflex. This effect is antagonized by yohimbine (α2 antagonist) and by agents facilitating noradrenaline release.
TRH antagonizes the effect of xylazine, and the median effective dose is close to 10 mg/kg IP. Under the same conditions, the ED50 of the compounds of Examples 1 and 5 are 0.1 and 0.3 mg/kg, respectively.

[2] = tested on: oxotremorine-induced tremor; test: Oxotremorine-induced tremor in mice; conditions: for minimal active dose (potentiation of tremor): IP
Protocol: Administered at a dose of 0.5 mg/kg IP, oxotremorine, a non-selective M1 -M2 muscarinic agonist leads to cholinergic symptoms of central origin, such as tremor. In control animals, the maximum tremor-inducing effect is observed after 15 minutes, and this effect disappears completely in the course of 45 to 60 minutes.
The administration of TRH (10 mg/kg IP) 30 minutes before that of oxotremorine potentiates the tremor (+50%) at its peak of intensity (15 minutes), but prolongs it to only a very small extent (15 minutes:+20%). The minimal active dose is 5 mg/kg.
Under the same conditions, the compounds of the invention also exert the same potentiating effect, but at much lower minimal active doses, and this effect persists for a further 60 minutes after the injection of oxotremorine. Thus, the minimal active doses are, for example, as follows: […]

[3] = tested on: sodium-dependent choline uptake (HACU); test: Cholinergic deficit induced by barbiturate narcosis in mice (hippocampal HACU); conditions: mouse hippocampus
[4] = 30 minutes before oxotremorine 0.5 mg/kg IP

## NC(=O)[C@@H]1CCCN1C(=O)[C@H](Cc1cnc[nH]1)NC(=O)[C@@H]1CCC(=O)N1 [TRH]
[1]
  median effective dose (ED50), antagonism of the effect of xylazine: ~10 mg/kg
[2]; 10 mg/kg IP, 30 minutes before oxotremorine 0.5 mg/kg IP
  potentiation of the tremor at its peak of intensity (15 minutes): +50%
[2]; 10 mg/kg IP, 30 minutes before oxotremorine, printed time 15 minutes
  prolongation of the tremor: +20%
[2]; [4]
  minimal active dose (potentiation of tremor): 5 mg/kg
[2]; administered 60 minutes before the muscarinic agonist
  potentiation of the tremor measured at the peak: no longer potentiates the tremor
[3]; 10 mg/kg IP, administered 30 minutes before pentobarbital
  counteraction of the fall in HACU: -1.9%
[3]; 10 mg/kg IP, administered simultaneously with pentobarbital (60 mg/kg IP)
  counteraction of the fall in HACU: -35%
[3]; 30 mg/kg IP, administered 30 minutes before pentobarbital
  counteraction of the fall in HACU: +4.8%

## AZEP-(S)(N.tau.-Me)His-(1S,3S,4R)ABH-NH2 [Example 1]
[1]
  median effective dose (ED50), antagonism of the effect of xylazine: 0.1 mg/kg
[2]; [4]
  minimal active dose (potentiation of tremor): 0.3 mg/kg
[3]; 1 mg/kg IP, administered 30 minutes before induction of narcosis
  counteraction of the fall in HACU: -25.5%
[3]; 3 mg/kg IP, administered 30 minutes before induction of narcosis
  counteraction of the fall in HACU: -61.1%
